Drawing on ChEMBL document CHEMBL5329205, “Development of novel quinoline-NO donor hybrids inducing human breast cancer cells apoptosis via inhibition of topoisomerase I” (Bioorg Med Chem, 2023), this text covers IC50 and Activity for 14 molecules.

For one data set, the system named is A549. The experiment in a line: Antiproliferative activity against human A549 cells assessed as inhibition of cell growth incubated for 48 hrs by MTT assay. Type of data set: functional, cell-based. The conditions noted are these: A549, 48 h. For orientation: Tetrazolium dyes change colour on reduction, which living cells bring about.
The test system of another data set is NCI/ADR-RES. The data set can be described thus: Antiproliferative activity against human MCF7ADR cells assessed as inhibition of cell growth measured after 48 hrs by MTT assay. Type of data set: functional, cell-based.
For data set [1], the system named is MCF7. The data set can be described thus: Antiproliferative activity against human MCF7 cells assessed as inhibition of cell growth incubated for 48 hrs by MTT assay. Type of data set: functional, cell-based. Particulars: MCF7, 48 h.
In the next data set the test system is HCT-116. The experiment in a line: Antiproliferative activity against human HCT-116 cells assessed as inhibition of cell growth incubated for 48 hrs by MTT assay. Type of data set: functional, cell-based. The conditions noted are these: HCT-116, 48 h.
Data set [2] is described as follows: Cytotoxicity against human MCF-10A cells assessed as cell growth inhibition measured after 48 hrs by MTT assay. The class given is toxicity, cell-based.
Data set [3] in a line: Toxicity in BALB/c mouse xenografted with human MCF7 cells assessed as liver damage at 10 mg/kg, ip administered once every two days for 3 weeks by H and E staining based microscopic analysis. Type of data set: organism-based. Particulars: in vivo, 504 h. In general terms: A xenograft is tissue or cells of one species grown in another, often human tumour cells in immunodeficient mice.

Data set [4] in a line: Toxicity in BALB/c mouse xenografted with human MCF7 cells assessed as spleen damage at 10 mg/kg, ip administered once every two days for 3 weeks by H and E staining based microscopic analysis. The class given is organism-based. The conditions noted are these: in vivo, 504 h.
A short description of data set [5]: Toxicity in BALB/c mouse xenografted with human MCF7 cells assessed as heart damage at 10 mg/kg, ip administered once every two days for 3 weeks by H and E staining based microscopic analysis. Type of data set: organism-based. The conditions noted are these: in vivo, 504 h.
Data set [6] is described as follows: Toxicity in BALB/c mouse xenografted with human MCF7 cells assessed as kidney damage at 10 mg/kg, ip administered once every two days for 3 weeks by H and E staining based microscopic analysis. Type of data set: organism-based. The conditions noted are these: in vivo, 504 h.
In data set [7] the test system is MCF7. The data set can be described thus: Antitumor activity against human MCF7 cells xenografted in BALB/c nude mouse assessed as reduction in tumor weight at 10 mg/kg, ip administered once every two days for 3 weeks relative to control. Type of data set: functional. Details: scale not given: the % may be the effect or the level left.
Data set [8] can be described thus: Toxicity in BALB/c mouse xenografted with human MCF7 cells assessed as lung damage at 10 mg/kg, ip administered once every two days for 3 weeks by H and E staining based microscopic analysis. The conditions noted are these: in vivo, 504 h. Type of data set: organism-based.

Regarding `O=C(OCCCCCOc1no[n+]([O-])c1S(=O)(=O)c1ccccc1)c1ccnc2ccccc12`, the IC50 in the data set on A549 is over 5 µM; in the data set with NCI/ADR-RES it was 4.66 µM; in the data set with MCF7 [1], over 5 µM; in the data set on HCT-116 it was 4.95 µM. In addition, the IC50 at 48 h in [2] stood at 4.21 µM.
In the case of `COc1cc(-c2cc(C(=O)OCCCCOc3no[n+]([O-])c3S(=O)(=O)c3ccccc3)c3ccccc3n2)cc(OC)c1OC`, the IC50 is 2.41 µM in the data set on A549, 1.09 µM in the data set on NCI/ADR-RES, 1.47 µM with MCF7 [1] and 2.03 µM in the data set with HCT-116. For the same molecule, the IC50 at 48 h in data set [2] is 36.5 µM.
On the same counts, the results for `COc1cc(-c2cc(C(=O)OCCCCCCOc3no[n+]([O-])c3S(=O)(=O)c3ccccc3)c3ccccc3n2)cc(OC)c1OC` are 2.71 µM, 3.32 µM, 3.16 µM, 4.35 µM and 28.2 µM.
For the molecule `O=C(O)c1ccnc2ccccc12`, the IC50 in the data set on A549, in the data set on NCI/ADR-RES, in the data set on MCF7 [1] and with HCT-116 was over 50 µM throughout. In data set [2], the IC50 at 48 h was over 50 µM.
As for `O=C(OCCCCOc1no[n+]([O-])c1S(=O)(=O)c1ccccc1)c1ccnc2ccccc12`, the IC50 was over 5 µM in the data set with A549, 4.28 µM in the data set on NCI/ADR-RES, 4.22 µM in the data set on MCF7 [1] and 4 µM with HCT-116. Further, the IC50 at 48 h in data set [2] is 32.2 µM.
With `CC(=O)O[C@H]1C(=O)[C@@]2(C)[C@H]([C@H](OC(=O)c3ccccc3)[C@]3(O)C[C@H](OC(=O)[C@H](O)[C@@H](NC(=O)c4ccccc4)c4ccccc4)C(C)=C1C3(C)C)[C@]1(OC(C)=O)CO[C@@H]1C[C@@H]2O` [PACLITAXEL], the Activity result in [3] is “Non-Toxic”; in data set [4] it was “Non-Toxic”; in [5], “Non-Toxic”; in [6], “Non-Toxic”; in the data set on MCF7 [7] it was 61.18%; in data set [8], “Non-Toxic”.
In the case of `COc1cccc2c1C(=O)c1c(O)c3c(c(O)c1C2=O)C[C@@](O)(C(=O)CO)C[C@@H]3O[C@H]1C[C@H](N)[C@H](O)[C@H](C)O1` [DOXORUBICIN], the results for the IC50 in the data set on A549 and in the data set with HCT-116 were 0.57 µM and 0.72 µM, respectively.
Take `O=S(=O)(c1ccccc1)c1c(OCCCCCO)no[n+]1[O-]`: the IC50 with MCF7 [1] worked out at 14.4 µM.
Consider `O=C(OCCOc1no[n+]([O-])c1S(=O)(=O)c1ccccc1)c1ccnc2ccccc12`, for which the IC50 in the data set on A549 was 3.49 µM; in the data set with NCI/ADR-RES, 3.32 µM; in the data set on MCF7 [1] it was 4.6 µM; with HCT-116, over 5 µM. Further, in [2], the IC50 at 48 h worked out at 23.2 µM.
On the same counts, the results for `O=C(OCCCCCCOc1no[n+]([O-])c1S(=O)(=O)c1ccccc1)c1ccnc2ccccc12` are over 5 µM, 5.51 µM, 4.22 µM, 4.97 µM and 34.1 µM.
On the same counts, the results for `COc1cc(-c2cc(C(=O)OCCCOc3no[n+]([O-])c3S(=O)(=O)c3ccccc3)c3ccccc3n2)cc(OC)c1OC` are 2.3 µM, 1.27 µM, 1.66 µM, 2.49 µM and 30.7 µM.
For `O=C(OCCCOc1no[n+]([O-])c1S(=O)(=O)c1ccccc1)c1ccnc2ccccc12` the same measures were over 5 µM, 5.16 µM, 4.23 µM, 4.37 µM and 25.4 µM.
`COc1cc(-c2cc(C(=O)O)c3ccccc3n2)cc(OC)c1OC`: the IC50 in the data set with MCF7 [1] was over 50 µM.
Regarding `COc1cc(-c2cc(C(=O)OCCOc3no[n+]([O-])c3S(=O)(=O)c3ccccc3)c3ccccc3n2)cc(OC)c1OC`, the IC50 in the data set on A549 was 2.69 µM; in the data set on NCI/ADR-RES it was 3.35 µM; in the data set with MCF7 [1] it was 2.25 µM; with HCT-116, 3.79 µM. In addition, in [2], the IC50 at 48 h is 16.3 µM.

For orientation: IC50 means the concentration needed to halve the response being measured.
